These are literature values, as cited in US6989450B2 (priority 2000, dated 2006).

Like-named read-outs stand apart in the source and are kept apart here.

As a reminder, the IC50 is the point on the concentration scale where inhibition reaches its midpoint.

The conditions of series [1]: water solubility; comparison with taxol.
Series [2] deals with multidrug resistant cell lines.
Series [3] concerns P-glycoprotein expressing KBV-1 cells. As to conditions: P-glycoprotein (MDR protein) expressing KBV-1 cells.
For series [4], the target named is microtubule, or polymeric, form of tubulin. Particulars: binding to polymeric tubulin.

As to `C/C(=C\c1csc(C)n1)[C@@H]1C[C@@H]2O[C@]2(C)CCC[C@H](C)[C@H](O)[C@@H](C)C(=O)C(C)(C)[C@@H](O)CC(=O)O1` [Epothilone B], the solubility result in series [1] is “better solubility than taxol”. For the same compound, the “potency relative to Taxol” value in series [2] (multidrug resistant cell lines / cancerous cells with acquired multiple drug resistance) is listed as “thousand-fold more active than Taxol”; in series [2] (multidrug resistant cell lines / cancerous cells with acquired multiple drug resistance, listed as 1), “thousand-fold more potent”. The IC50 in series [3] was 0.058 µM.
As to `CC(=O)O[C@H]1C(=O)[C@@]2(C)[C@H]([C@H](OC(=O)c3ccccc3)[C@]3(O)C[C@H](OC(=O)[C@H](O)[C@@H](NC(=O)c4ccccc4)c4ccccc4)C(C)=C1C3(C)C)[C@]1(OC(C)=O)CO[C@@H]1C[C@@H]2O` [Taxol], the IC50 in series [3] was 23 µM. In addition, in series [4], the KD entry is recorded as “micromolar”.
Turning to `C/C(=C\c1csc(C)n1)[C@@H]1C[C@@H]2O[C@@H]2CCC[C@H](C)[C@H](O)[C@@H](C)C(=O)C(C)(C)[C@@H](O)CC(=O)O1` [Epothilone A], in series [2], the “potency relative to Taxol” value is on record as “thousand-fold more potent”.
